Reference: patent publication US20260132115A1, “SUBSTITUTED 3-FLUOROBENZENEPROPANOATE COMPOUND AND PREPARATION METHOD THEREFOR, PHARMACEUTICAL COMPOSITION THEREOF, AND USE THEREOF” (TIANJIN GUDUI BIO-PHARM CO., LTD., priority 2022, published 2026)
Like-named read-outs stand apart in the source and are kept apart here. Marks after values point to notes of the source that are not given here.

What was measured:
[1] = test system: λ-Carrageenan-Induced Rat Toe Swelling; test: Anti-inflammatory effect on λ-carrageenan-induced rat toe swelling; format: in vivo, SD rats; details: 10 mg/kg intraperitoneal, 1 h before 1% λ-carrageenan; for inhibition in vivo at 10 mg/kg: Rattus norvegicus, ip
Protocol: Experimental method: Male SD rats weighing 150-160 g were randomly grouped, with 10 rats in each group. The rats were intraperitoneally injected with saline, the compounds of the present disclosure, and the control drug flurbiprofen or flurbiprofen axetil respectively, all of which were administered at a dose of 10 mg/kg and a dosing volume of 10 μL/g. At 1 h after administration, 100 μL of 1% λ-carrageenan was injected into the right hind toe of each rat to induce inflammation. Afterwards, the paw volume was measured every 1 h using a paw volume meter to calculate the swelling inhibition rate.

[2] = test system: Dry Yeast-Induced Rat Fever Models; test: Antipyretic effect on dry yeast-induced fever in rats; format: in vivo, SD rats; details: rectal temperature, 10 mg/kg intraperitoneal, 20 min before 20% dry yeast s.c.
Protocol: Experimental method: Male SD rats, aged 4 weeks, were randomly grouped, with 10 rats in each group. […] The rats were intraperitoneally injected with saline, the compounds of the present disclosure or the control drug flurbiprofen respectively, all of which were administered at a dose of 10 mg/kg and a dosing volume of 10 μL/g. At 20 min after administration, 20% active dry yeast suspension was injected subcutaneously. After modeling, the rectal temperatures were measured at 4 h and 8 h.

Eca-109 = test: Antitumor potency, MTT method, Eca-109; format: cell-based; details: Homo sapiens, 72 h incubation
Protocol: (§1) Experimental method: The antitumor potency was tested by the MTT method. Tumor cells at the logarithmic phase were collected. The concentration of the cell suspension was adjusted. 100 μL of the cell suspension was added to each well. Cell plating was carried out and the cell density was adjusted to 1000 to 10000/well (the marginal wells were filled with sterile PBS). The cells were incubated at 5% CO2 and 37° C. until the cells adhered to the wall (96-well flat-bottomed plate). Drugs of different concentration gradients were added, 100 μL per well. Four replicates were set up. Under the conditions of 5% CO2 and 37° C., the cells were incubated for 72 h and observed under an inverted microscope. The prepared MTT solution (5 mg/mL) was added to the 96-well plate, 20 μL per well, mixed well, and incubated for 4 h under the conditions of 37° C. and 5% CO2. Afterwards, the liquid in the plate was discarded. 150 μL of DMSO was added to each well and oscillated for 3 min on a microplate reader. The OD value (optical density) was detected at 490 nm.
(§2) The inhibition rate of the drug against the tumor cell growth was calculated according to the following formula: […]

U251 = test: Antitumor potency, MTT method, U251; format: cell-based; details: Homo sapiens, U-251, 72 h incubation
Protocol: as §1, §2

NUGC-4 = test: Antitumor potency, MTT method, NUGC-4; format: cell-based; details: Homo sapiens, 72 h incubation
Protocol: as §1, §2

U87 = test: Antitumor potency, MTT method, U87; format: cell-based; details: Homo sapiens, U-87 MG, 72 h incubation
Protocol: as §1, §2

MM.1S = test: Antitumor potency, MTT method, MM.1S; format: cell-based; details: Homo sapiens, MM1.S, 72 h incubation
Protocol: as §1, §2

H460 = test: Antitumor potency, MTT method, H460; format: cell-based; details: Homo sapiens, NCI-H460, 72 h incubation
Protocol: as §1, §2

rats with CIA = test: Analgesic and anti-inflammatory effects on collagen-induced rheumatoid arthritis (CIA) in rats; format: in vivo, Lewis rats; details: for paw volume effect as compared to the flurbiprofen group: left hind limb, 14-day intervention, 10 mg/kg (FIG. 3); for MWT effect as compared to the flurbiprofen group: left lower limb, 13-day intervention, 10 mg/kg (FIG. 4)
Protocol: Experimental method: Female Lewis rats, aged 6-8 weeks, were randomly grouped, with 8 rats in each group. Under the ambient temperature of 20.5° C. to 24.5° C. and the humidity of 40% to 70%, the light period was 12-h bright and 12-h dark. Type II collagen was mixed with Freund's incomplete adjuvant (IFA) at a ratio of 1:1 and fully emulsified on ice before use. 100 μL of the mixed solution was injected intradermally at the part 2 to 3 cm from the base of the rat tail, and 50 μL of the mixed solution was injected into the bases of both hind limbs separately. The rats in the blank control group were injected with an equal volume of saline. IFA was used for re-immunization 7 days later. […] Rats with a total score of more than 2 on both hind limbs were selected and randomly divided into a model group, a flurbiprofen group, a compound 33 group, a compound 2 group, a compound 13 group, a compound 20 group, and a compound 35 group according to the body weight, score and paw volume, and furthermore a blank control group was set up, with 8 rats in each group. The dosing […] was […], and the dosing time was 14 days. A corresponding volume of solvent was administered in the model group and the blank control group.
Test indicators: body weight, arthritis score, hind limb paw volume, and mechanical foot threshold (MWT).
Standard for arthritis score: 0=normal; 1=erythema and slight swelling observed at the ankle joint; 2=erythema and slight swelling observed from the ankle joint to the metatarsal joint or the metacarpal joint; 3=erythema and moderate swelling observed from the ankle joint to the metatarsophalangeal joint or the metacarpal joint; 4=erythema and severe swelling observed from the ankle joint to the metatarsal joint; the total score of all (four) paws was calculated, and the sum of the arthritis indices was up to 16 per rat.

[3] = In vivo pharmacokinetic assay in rats (gavage, plasma); details: female, Sprague Dawley, po, prototype drug in rat plasma, dose equimolar to 50 mg/kg flurbiprofen
Protocol: Experimental method: Adult female Sprague Dawley rats, aged 8-10 weeks and weighing 200±20 g, were randomly grouped, with 3 rats in each group. Rats in each of the groups were administered by gavage at a dose of 50 mg/kg of flurbiprofen and an equimolar dose of other example compounds to 50 mg/kg of flurbiprofen, respectively. After gavage administration, blood was collected at 0.0833 […], and 24 h into sodium heparin anticoagulant tubes, respectively. The blood was collected by the following method: 250 μL of blood were collected from the orbital venous plexuses of the rats. After blood collection, the blood samples were centrifuged at 12000 rpm in a centrifuge for 5 min. All plasma was aspirated into a 1.5-mL centrifuge tube, and the plasma was stored in a refrigerator at -80° C. The pharmacokinetic parameters were determined by the external standard curve method. Sample processing: after the cryopreserved samples were removed and restored to room temperature, the samples were vortexed evenly and then diluted two folds with methanol; the sample solution was diluted 5 folds by adding a mixed extractant of 0.5% formic acid-containing acetonitrile:methanol=7:3, and subjected to vortex oscillation for 1 min. Subsequently, the resultant was centrifuged at 4° C. and 12000 rpm for 10 min, and then 5 μL of the supernatant was measured for assay. The pharmacokinetic parameters in the Examples were calculated using the Winnonlin software.

[4] = 6 h, read-out: Toe Swelling Inhibition Rate at 6 h
[5] = 24 h, read-out: Toe Swelling Inhibition Rate at 24 h

Compound	inhibition in vivo at 10 mg/kg [1, 4]	inhibition in vivo at 10 mg/kg [1, 5]	Temp. at 4 h After Dosing [2]	Temp. at 8 h After Dosing [2]	other results
CC(C(=O)OCOC(=O)N1C[C@@H](C)O[C@@H](C)C1)c1ccc(-c2ccccc2)c(F)c1 (stereo partly shown) [Compound 3]	45.3%	28.1%	–	–	–
CC(C(=O)OCOC(=O)N[C@@H](Cc1ccc(O)cc1)C(=O)O)c1ccc(-c2ccccc2)c(F)c1 (stereo partly shown) [Compound 7]	47.9%	21.5%	–	–	–
CC(OC(=O)C(C)c1ccc(-c2ccccc2)c(F)c1)OC(=O)N1CCOCC1 (stereo not shown) [Compound 9]	–	–	37.17 ± 0.23 °C	37.10 ± 0.37 °C	–
CCCN(CCC)C(=O)OCOC(=O)C(C)c1ccc(-c2ccccc2)c(F)c1 (stereo not shown) [Compound 13]	46%	37%	37.10 ± 0.172 °C	37.32 ± 0.27 °C	IC50 (Eca-109): 30.7 µM; IC50 (U251): 73.9 µM; IC50 (NUGC-4): 40.1 µM; IC50 (U87): 80.5 µM; IC50 (MM.1S): 5.39 µM; IC50 (H460): 47.9 µM; paw volume effect as compared to the flurbiprofen group (rats with CIA): better effects; MWT effect as compared to the flurbiprofen group (rats with CIA): slightly better or better effects
CC(=O)N1CCN(C(=O)OCOC(=O)C(C)c2ccc(-c3ccccc3)c(F)c2)CC1 (stereo not shown) [Compound 15]	–	–	37.16 ± 0.16 °C	37.27 ± 0.24 °C	–
CC(C(=O)OCOC(=O)N1CCC(O)CC1)c1ccc(-c2ccccc2)c(F)c1 (stereo not shown) [Compound 20]	52.7%	45%	37.09 ± 0.25 °C	37.27 ± 0.26 °C	IC50 (Eca-109): 33.2 µM; IC50 (U251): 5.84 µM; IC50 (NUGC-4): 50.4 µM; IC50 (U87): 54.6 µM; IC50 (MM.1S): 42.8 µM; IC50 (H460): 35.9 µM; paw volume effect as compared to the flurbiprofen group (rats with CIA): better effects; MWT effect as compared to the flurbiprofen group (rats with CIA): slightly better or better effects
CC(C(=O)OCOC(=O)N(CCO)CCO)c1ccc(-c2ccccc2)c(F)c1 (stereo not shown) [Compound 25]	–	–	–	–	AUC [3]: 63000 ± 11800 ng·h/mL; Cmax [3]: 3860 ± 178 ng/mL; half-life ([3]; read-out: Prototype Drug t1/2 (converted)): 8.1 ± 4.42 h
CCCN(CCC)C(=O)OCOC(=O)[C@@H](C)c1ccc(-c2ccccc2)c(F)c1 [Compound 29]	45.8%	29.6%	37.12 ± 0.13 °C	37.35 ± 0.23 °C	–
C[C@H](C(=O)OCOC(=O)N1CCC(O)CC1)c1ccc(-c2ccccc2)c(F)c1 [Compound 31]	45.4%	31.9%	37.12 ± 0.30 °C	37.22 ± 0.30 °C	–
CC(=O)Oc1ccccc1C(=O)OCOC(=O)C(C)c1ccc(-c2ccccc2)c(F)c1 (stereo not shown) [Compound 36]	45.3%	28.1%	37.38 ± 0.31 °C	37.24 ± 0.16 °C	–
CC(C(=O)OCOC(=O)c1ccc(N(C)C)cc1O)c1ccc(-c2ccccc2)c(F)c1 (stereo not shown) [Compound 41]	43%	32.2%	37.19 ± 0.35 °C	37.30 ± 0.31 °C	–
COc1cc(COC(=O)C(C)c2ccc(-c3ccccc3)c(F)c2)cc(OC)c1 (stereo not shown) [Compound 47]	49.3%	33.9%	37.17 ± 0.27 °C	37.26 ± 0.22 °C	–
CC(C(=O)OCc1ccccc1O)c1ccc(-c2ccccc2)c(F)c1 (stereo not shown) [Compound 48]	44.1%	33.9%	37.11 ± 0.23 °C	37.21 ± 0.25 °C	–
CC(C(=O)OCOC(=O)CCCCCN1C(=O)C=CC1=O)c1ccc(-c2ccccc2)c(F)c1 (stereo not shown) [Compound 53]	69%	75.2%	37.04 ± 0.20 °C	37.02 ± 0.30 °C	–
CC(C(=O)OCOC(=O)CCN1C(=O)CCC1=O)c1ccc(-c2ccccc2)c(F)c1 (stereo not shown) [Compound 55]	36.7%	41.4%	–	–	–
CC(C(=O)OCOC(=O)CCCN1C(=O)C=CC1=O)c1ccc(-c2ccccc2)c(F)c1 (stereo not shown) [Compound 57]	43.8%	43.4%	–	–	–
CCCCN(CCCC)C(=O)OCOC(=O)C(C)c1ccc(-c2ccccc2)c(F)c1 (stereo not shown) [Compound 65]	43.1%	43.8%	37.10 ± 0.20 °C	37.24 ± 0.23 °C	–
CCCCCCN(C)C(=O)OCOC(=O)C(C)c1ccc(-c2ccccc2)c(F)c1 (stereo not shown) [Compound 67]	48.6%	57.3%	37.17 ± 0.19 °C	37.16 ± 0.20 °C	–
CC(C)CN(CC(C)C)C(=O)OCOC(=O)C(C)c1ccc(-c2ccccc2)c(F)c1 (stereo not shown) [Compound 69]	65.9%	70.6%	37.09 ± 0.18 °C	37.13 ± 0.27 °C	–
CC(C(=O)O)c1ccc(-c2ccccc2)c(F)c1 (stereo not shown) [Flurbiprofen, reference compound]	35.5%	29.9%	37.49 ± 0.43 °C	37.67 ± 0.39 °C	IC50 (Eca-109): 85.5 µM; IC50 (U251): 34.1 µM; IC50 (NUGC-4): > 100 µM; IC50 (U87): > 100 µM; IC50 (MM.1S): > 100 µM; IC50 (H460): > 100 µM
Flurbiprofen axetil [reference compound]	–	–	–	–	Toe Swelling Inhibition Rate at 6 h ([1]; 6 h): 35.53%**; Toe Swelling Inhibition Rate at 24 h ([1]; 24 h): 22.85%**
